Measurements: patent publication US20240262832A1, “SMALL MOLECULE MODULATORS OF GLUCOCEREBROSIDASE ACTIVITY AND USES THEREOF” (Vanqua Bio, Inc., priority 2021, published 2024)

target: T1, GCase (Homo sapiens, UniProt P04062); experiment: activation of GCase in a live cell PFB assay in HELA cells; assay type: cell-based
T1 construct: endogenous in cells; host or cells: HeLa cells
T1 sequence (P04062 40-536): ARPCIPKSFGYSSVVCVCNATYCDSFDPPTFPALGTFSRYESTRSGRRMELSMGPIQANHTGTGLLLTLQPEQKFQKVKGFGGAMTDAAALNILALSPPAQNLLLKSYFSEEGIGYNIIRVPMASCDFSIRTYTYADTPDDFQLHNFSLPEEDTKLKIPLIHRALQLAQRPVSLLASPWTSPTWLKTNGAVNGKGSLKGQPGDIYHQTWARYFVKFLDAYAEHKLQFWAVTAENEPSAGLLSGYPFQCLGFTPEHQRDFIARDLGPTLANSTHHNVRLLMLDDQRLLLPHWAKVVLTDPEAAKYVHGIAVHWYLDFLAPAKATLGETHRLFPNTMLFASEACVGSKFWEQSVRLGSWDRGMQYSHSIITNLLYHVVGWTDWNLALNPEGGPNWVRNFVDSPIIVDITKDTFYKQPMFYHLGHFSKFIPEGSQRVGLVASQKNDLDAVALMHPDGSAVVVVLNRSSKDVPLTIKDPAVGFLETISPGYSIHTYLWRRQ

Row | EC50 [µM] | Structure (SMILES)
1 | > 100 | COc1ccc(OCC2CCN(C(=O)c3ccc(CN4CCCC4)o3)CC2)cc1 [Compound 457]
2 | 10 to 50 | O=C(C1CCCCC12CC2)N1CCCC(COc2ccccc2)C1 (stereo not drawn) [Compound 209]
3 | 10 to 50 | COCCn1ncc2ncc(N3C[C@@H](C)C[C@@H](COc4cccnc4C(F)(F)F)C3)nc21 [Compound 230a, 1-(2-Methoxyethyl)-6-((3S,5R)-3-methyl-5-(((2-(trifluoromethyl)pyridin-3-yl)oxy)methyl)piperidin-1-yl)-1H-pyrazolo[3,4-b]pyrazine]
4 | 10 to 50 | FC(F)Cn1ncc2ncc(N3CC4CC4(COc4cccnc4C(F)(F)F)C3)nc21 (stereo not drawn) [Compound 260, 3-[1-(2,2-Difluoroethyl)-1H-pyrazolo[3,4-b]pyrazin-6-yl]-1-({[2-(trifluoromethyl)pyridin-3-yl]oxy}methyl)-3-azabicyclo[3.1.0]hexane]
5 | 10 to 50 | FC(F)Cn1ncc2ncc(N3C[C@H](COc4cccnc4C(F)(F)F)C[C@H](OC(F)F)C3)nc21 [Compound 299a, 1-(2,2-Difluoroethyl)-6-((3S,5R)-3-(difluoromethoxy)-5-(((2-(trifluoromethyl)pyridin-3-yl)oxy)methyl)piperidin-1-yl)-1H-pyrazolo[3,4-b]pyrazine]
6 | 50 to 100 | O=C(c1ccc(-c2nnc[nH]2)cc1)N1CCC(OCc2ccccc2)CC1 [Compound 468]
7 | 10 to 50 | CN(CC1CCCN(c2cnc3cnn(CC(F)F)c3n2)C1)c1cccc(C(F)(F)F)n1 (stereo not drawn) [Compound 239, N-((1-(1-(2,2-Difluoroethyl)-1H-pyrazolo[3,4-b]pyrazin-6-yl)piperidin-3-yl)methyl)-N-methyl-6-(trifluoromethyl)pyridin-2-amine]
8 | 10 to 50 | CCNC(=O)c1ccc(N2CCC(COc3ccc(OC)cc3)CC2)nc1 [Compound 438]
9 | 10 to 50 | FC(F)Cn1ncc2cnc(N3CCCC(COc4cccnc4C(F)(F)F)C3)nc21 (stereo not drawn) [Compound 119, 1-(2,2-difluoroethyl)-6-(3-(((2-(trifluoromethyl)pyridin-3-yl)oxy)methyl)piperidin-1-yl)-1H-pyrazolo[3,4-d]pyrimidine]
10 | > 100 | COc1ccc(OCC2CCN(c3nnc(N)s3)CC2)cc1 [Compound 429]
11 | 10 to 50 | CN1CCc2cc(C(=O)N3CCCC(COc4ccccc4)C3)ccc21 (stereo not drawn) [Compound 181]
12 | 50 to 100 | O=C(c1ccc2cc[nH]c2c1)N1CCC(OCc2ccccc2)CC1 [Compound 415, 6-[4-(Benzyloxy)piperidine-1-carbonyl]-1H-indole]
13 | 10 to 50 | FC(F)Cn1ncc2ncc(N3CCC(COc4cc(C(F)(F)F)ccn4)CC3)nc21 [Compound 324, 2-({1-[1-(2,2-Difluoroethyl)-1H-pyrazolo[3,4-b]pyrazin-6-yl]piperidin-4-yl}methoxy)-4-(trifluoromethyl)pyridine]
14 | 10 to 50 | Cc1cccc2cc(C(=O)N3CCC(Oc4ccccc4)CC3)oc12 [Compound 409, 1-(7-Methyl-1-benzofuran-2-carbonyl)-4-phenoxypiperidine]
15 | 10 to 50 | Cc1ccccc1OCC1CCCN(C(=O)c2cnc3c(cc(-c4ccccc4)n3C)n2)C1 (stereo not drawn) [Compound 52, (5-methyl-6-phenyl-5H-pyrrolo[2,3-b]pyrazin-2-yl)(3-((o-tolyloxy)methyl)piperidin-1-yl)methanone]
16 | 50 to 100 | C[C@@H]1CC[C@H](COc2cc(C(F)(F)F)ccn2)CN1c1cnc2cnn(CC(F)F)c2n1 [Compound 276, 1-(2,2-Difluoroethyl)-6-((2R,5S)-2-methyl-5-(((4-(trifluoromethyl)pyridin-2-yl)oxy)methyl)piperidin-1-yl)-1H-pyrazolo[3,4-b]pyrazine]
17 | 10 to 50 | O=C(c1ccc2ccn(C3COC3)c2c1)N1CCC[C@H](CCc2ccccc2C(F)(F)F)C1 [Compound 19, 1-(oxetan-3-yl)-6-[(3S)-3-{2-[2-(trifluoromethyl)phenyl]ethyl}piperidine-1-carbonyl]-1H-indole]
18 | < 10 | FC(F)Cn1ncc2ncc(N3CCC(F)(F)C(COc4cccnc4C(F)(F)F)C3)nc21 (stereo not drawn) [Compound 20, 3-({1-[1-(2,2-difluoroethyl)-1H-pyrazolo[3,4-b]pyrazin-6-yl]-4,4-difluoropiperidin-3-yl}methoxy)-2-(trifluoromethyl)pyridine]
19 | < 10 | FC(F)Cn1ncc2ncc(N3C[C@H](COc4cccnc4C(F)(F)F)C[C@@H](OC(F)F)C3)nc21 [Compound 299b, 1-(2,2-Difluoroethyl)-6-((3R,5R)-3-(difluoromethoxy)-5-(((2-(trifluoromethyl)pyridin-3-yl)oxy)methyl)piperidin-1-yl)-1H-pyrazolo[3,4-b]pyrazine]
20 | 10 to 50 | O=C(c1cnc2c(cnn2-c2ccccc2)n1)N1CCCC(COc2cccnc2C(F)(F)F)C1 (stereo not drawn) [Compound 103, (1-Phenyl-1H-pyrazolo[3,4-b]pyrazin-5-yl)(3-(((2-(trifluoromethyl)pyridin-3-yl)oxy)methyl)piperidin-1-yl)methanone]
21 | > 100 | COc1ccc(OCC2CCN(c3cc(C4CC(N)C4)ncn3)CC2)cc1 (stereo not drawn) [Compound 482]
22 | < 10 | CC1CCC(COc2cccnc2C(F)(F)F)CN1c1cncc(-c2nncs2)n1 (stereo not drawn) [Compound 232, 2-[2-Methyl-5-({[2-(trifluoromethyl)pyridin-3-yl]oxy}methyl)piperidin-1-yl]-6-(1,3,4-thiadiazol-2-yl)pyrazine]

Continued, molecule first:

Row | Structure (SMILES) | EC50 [µM]
23 | FC(F)(F)c1ncccc1OC[C@@H]1[C@H]2CN(c3nccc(-c4nncs4)n3)C[C@@H]12 [Compound 121, (1R,5S,6r)-3-(4-(1,3,4-Thiadiazol-2-yl)pyrimidin-2-yl)-6-(((2-(trifluoromethyl)pyridin-3-yl)oxy)methyl)-3-azabicyclo[3.1.0]hexane] | 10 to 50
24 | CC1CC(COc2cccnc2C(F)(F)F)CN(C(=O)c2ccc3cc[nH]c3c2)C1 (single isomer, unassigned) [Compound 252b] | < 10
25 | CN1CCC(COc2cccc(-c3cnc4ccccc4n3)c2)CC1 [Compound 428] | 10 to 50
26 | COc1ccc(OCC2CCN(CC(C)(C)N3CCOCC3)CC2)cc1 [Compound 467] | > 100
27 | N#Cc1cccnc1OC1CCN(C(=O)C23CC4CC(CC(C4)C2)C3)CC1 [Compound 375] | 10 to 50
28 | CC1CC(COc2cccnc2C(F)(F)F)CN(c2cnc3cnn(CC(F)F)c3n2)C1 (single isomer, unassigned) [Compound 47b] | < 10
29 | C[C@@H](Oc1ccccc1C(F)(F)F)[C@@H]1CCCN(c2cnc3cnn(CC(F)F)c3n2)C1 [Compound 5b, 1-(2,2-difluoroethyl)-6-((R)-3-((R)-1-(2-(trifluoromethyl)phenoxy)ethyl)piperidin-1-yl)-1H-pyrazolo[3,4-b]pyrazine] | 10 to 50
30 | O=C(c1cncc(-c2nncs2)n1)N1C[C@@H]2[C@@H](COc3cccc(C(F)(F)F)n3)[C@@H]2C1 [Compound 226, (1R,5S,6S)-3-[6-(1,3,4-thiadiazol-2-yl)pyrazine-2-carbonyl]-6-({[6-(trifluoromethyl)pyridin-2-yl]oxy}methyl)-3-azabicyclo[3.1.0]hexane] | 10 to 50
31 | C[C@@H]1CC[C@H](COc2cncc(C(F)(F)F)c2)CN1c1cnc2cnn(CC(F)F)c2n1 [Compound 273, 1-(2,2-Difluoroethyl)-6-((2R,5S)-2-methyl-5-(((5-(trifluoromethyl)pyridin-3-yl)oxy)methyl)piperidin-1-yl)-1H-pyrazolo[3,4-b]pyrazine] | 10 to 50
32 | Cn1c(-c2cccc(C(F)(F)F)n2)nc2nc(N3C[C@@H]4[C@@H](COc5cc(F)cc(F)c5)[C@@H]4C3)cnc21 [Compound 227, 5-((1R,5S,6r)-6-((3,5-difluorophenoxy)methyl)-3-azabicyclo[3.1.0]hexan-3-yl)-1-methyl-2-(6-(trifluoromethyl)pyridin-2-yl)-1H-imidazo[4,5-b]pyrazine] | < 10
33 | CCCCC[C@H]1CC[C@H](C(=O)N2CCCC(COc3ccccc3)C2)CC1 (stereo partly drawn) [Compound 178] | < 10
34 | O=C(N1CCCC(COc2ccccc2)C1)C12CCC(C(F)F)(CC1)C2 (stereo not drawn) [Compound 10] | 10 to 50
35 | CCOc1ccccc1C(=O)N1CCC(Oc2ccc(C(F)(F)F)cn2)CC1 [Compound 391] | 10 to 50
36 | FC(F)Cn1ncc2ncc(N3CCC(F)(F)C(COc4cccc(C(F)(F)F)n4)C3)nc21 (stereo not drawn) [Compound 42, 2-({1-[1-(2,2-Difluoroethyl)-1H-pyrazolo[3,4-b]pyrazin-6-yl]-4,4-difluoropiperidin-3-yl}methoxy)-6-(trifluoromethyl)pyridine] | 10 to 50
37 | Cc1ccccc1OCC1CCCN(C(=O)[C@@H]2CCc3nccc(=O)n32)C1 (stereo partly drawn) [Compound 280, (6S)-6-(3-((o-Tolyloxy)methyl)piperidine-1-carbonyl)-7,8-dihydropyrrolo[1,2-a]pyrimidin-4(6H)-one] | > 100
38 | Cc1ccccc1CCC1CCCN(C(=O)c2cnn(-c3ccccc3)n2)C1 (stereo not drawn) [Compound 15, (3-(2-methylphenethyl)piperidin-1-yl)(2-phenyl-2H-1,2,3-triazol-4-yl)methanone] | 10 to 50
39 | FC(F)(F)c1ncccc1OC[C@@H]1[C@H]2CN(c3cnc4cnn(C5COC5)c4n3)C[C@@H]12 [Compound 98, 1-(Oxetan-3-yl)-6-((1R,5S,6r)-6-(((2-(trifluoromethyl)pyridin-3-yl)oxy)methyl)-3-azabicyclo[3.1.0]hexan-3-yl)-1H-pyrazolo[3,4-b]pyrazine] | > 100
